Reference: PubChem BioAssay AID1996
Converted amounts (≈) assume the structure as drawn.

Details: buffer; pH 7.4; 200.0 µM

| Compound | solubility kinetic |
| --- | --- |
| CC(C(=O)Nc1ccc(C(F)(F)F)cc1)N(C)CC(=O)N1CCN(Cc2ccccc2)CC1.O=C(O)C(=O)O (centres undefined) | 52.1 µg/mL |
| COc1ccc(-c2csc(Nc3ncccn3)n2)cc1C | < 0.1 µg/mL |
| Cc1ccc(Cn2cccc(NS(C)(=O)=O)c2=O)cc1 | > 43.9 µg/mL |
| FC(F)(F)c1ccnc(N2CCN(Cc3cnc(-c4ccccc4)[nH]3)CC2)c1 | 26.8 µg/mL (≈ 69.2 µM) |
| CC1CN=C(NC(=O)c2cccc([N+](=O)[O-])c2)S1.Cl (centres undefined) | 12.5 µg/mL |
| O=C(Nc1ccccc1)Nc1ccc(Oc2cccnc2)nc1 | 20.5 µg/mL (≈ 66.9 µM) |
| CSc1sc(C(=O)N2CCc3ccccc32)cc1S(=O)(=O)C(C)C | < 0.8 µg/mL |
| Cc1ccc(C)c(S(=O)(=O)NCC(=O)N2CCCC2)c1 | 41.4 µg/mL (≈ 140 µM) |
| Cc1cc(C)c(C)c(S(=O)(=O)Nc2cccc(S(=O)(=O)Nc3ccccc3C(=O)O)c2)c1C | 72.1 µg/mL (≈ 148 µM) |
| CCC(C)[C@H](NC(=O)N1CCCCCC1)C(=O)O (some centres undefined) | > 38.5 µg/mL |
| CCCC(=O)OCC(=O)c1[nH]c(C)c(C(C)=O)c1C | > 39.8 µg/mL |
| CNc1nc(-c2ccccc2)[n+](-c2ccc(C)cc2)s1.[Br-] | 42.1 µg/mL |
| Nc1ccc(Oc2ccc3c(c2)OCO3)cc1 | 27.3 µg/mL (≈ 119 µM) |
| O=C(CCN1C(=O)COc2ccccc21)N1CCN(c2ccccc2)CC1 | 47 µg/mL (≈ 129 µM) |
| CCOc1ccc(CCNC(=O)COC(=O)c2ccc[nH]c2=O)cc1OCC | > 58.3 µg/mL |
| C=C(C)CN(CC)C(=O)CN1C(=O)NC2(CCCc3ccccc32)C1=O (centres undefined) | > 53.3 µg/mL |
| O=C(NC1CCCCC1)C1CC(=O)N(CCc2ccc(F)cc2)C1 (centres undefined) | 45 µg/mL (≈ 135 µM) |
| O=C(NC(=S)N1CCN(c2ccc(O)cc2)CC1)c1cccs1 | 41.7 µg/mL (≈ 120 µM) |
| COc1cc(CNCCO)ccc1OCCc1ccccc1 | > 45.2 µg/mL |

| Compound | solubility kinetic |
| --- | --- |
| Cc1cc(C)nc(SCC(=O)c2ccc(Cl)cc2)n1 | 33.5 µg/mL (≈ 114 µM) |
| CC(=O)Nc1ccc(NC(=O)C(C)OC(=O)c2ccc(S(=O)(=O)N3CCCCCC3)cc2)cc1 (centres undefined) | 9.6 µg/mL (≈ 19.7 µM) |
| S=c1nc(NCc2cccc(Cl)c2)c2ccccc2[nH]1 | 0.5 µg/mL (≈ 1.66 µM) |
| CCNC(=S)N1CCC(n2cnc3ccccc32)CC1 | > 43.3 µg/mL |
| CC1CCC(NC(=O)C2CC(=O)N(c3ccc(Cl)cc3)C2)CC1 (centres undefined) | 2.3 µg/mL (≈ 6.87 µM) |
| COc1ccc(NC(=O)Nc2cccc(Cl)c2Cl)c(OC)n1 | < 0.2 µg/mL |
| Cc1ccc2nc(C(F)C(F)(F)F)[nH]c2c1 (centres undefined) | > 34.8 µg/mL |
| CCCCOc1nc(N2CCOCC2)nc(C)c1[N+](=O)[O-] | 1.5 µg/mL (≈ 5.06 µM) |
| O=C(/C=C/c1ccco1)NCc1ccc2c(c1)OCO2 | > 40.7 µg/mL |
| COC(=O)c1cc(S(=O)(=O)Nc2cccc(-c3cnco3)c2)oc1C | 50.3 µg/mL (≈ 139 µM) |
| Cc1cc(=O)[nH]c2c(C)cc(S(=O)(=O)N3CCOCC3)cc12 | 17.3 µg/mL (≈ 53.7 µM) |
| Cn1cnnc1SCC(=O)NC1CCCC1 | > 36 µg/mL |
| O=C(Nc1ccc(Cl)cc1)c1cncs1 | > 35.8 µg/mL |
| CSc1ncccc1C(=O)Nc1ccc(OC(F)(F)F)cc1 | 3.8 µg/mL (≈ 11.6 µM) |
| CC(=O)NO | < 0.2 µg/mL |
| CO/N=C(\N)c1nonc1N | 20.1 µg/mL (≈ 128 µM) |
| O=C1CCC([N+](=O)[O-])C(c2ccccc2Br)N1 (centres undefined) | > 44.9 µg/mL |
| CCOc1ccccc1C(=O)NCC(=O)O | > 33.5 µg/mL |

Now from value to compound:

| solubility kinetic | Compound |
| --- | --- |
| > 71.5 µg/mL | O=C(Nc1cc(S(=O)(=O)N2CCOCC2)ccc1N1CCOCC1)c1ccccc1[N+](=O)[O-] |
| > 41.7 µg/mL | O=C(CSc1nc2ccccc2o1)N1CCOCC1 |
| > 42.1 µg/mL | CCCc1nc2cc3c(cc2[nH]1)n(C)c(=O)n3C.Cl |
| > 35.3 µg/mL | CSc1ccccc1C(=O)N1CCCCC1 |
| 25.9 µg/mL (≈ 96.2 µM) | CN=C(C)/C(C(=O)OC)=C(/O)c1c(F)cccc1F |
| 38.9 µg/mL (≈ 146 µM) | COCn1c(C(O)c2ccccc2)cc2ccccc21 (centres undefined) |
| > 61.6 µg/mL | Cc1ccc(S(=O)(=O)N2CCOCC2)cc1C(=O)OCC(=O)NC1CCCC1 |
| 2 µg/mL (≈ 6.87 µM) | Cc1nc(Nc2cccc(O)c2)c2oc3ccccc3c2n1 |
| 18.4 µg/mL (≈ 59.1 µM) | CCOC(=O)Cc1csc(NC(=O)Nc2cccs2)n1 |
| > 48.4 µg/mL | CCC(C)N1C(=O)CCC1C(=O)NCCc1ccc(Cl)cc1 (centres undefined) |
| > 42.5 µg/mL | CC(C)(C)NS(=O)(=O)c1ccc(/C=C/C(=O)O)cc1 |
| 51.2 µg/mL (≈ 150 µM) | O=C(COC(=O)c1cccnc1Cl)c1ccc(OC(F)F)cc1 |
| 11.6 µg/mL (≈ 39.4 µM) | CN(C)c1cccc(C(=O)NC2CCCc3ccccc32)c1 (centres undefined) |
| > 36.2 µg/mL | CC(C)(C)NC(=O)NC(=O)CN1CCCCC1 |
| > 57.4 µg/mL | O=C(Nc1ccc(F)cc1)c1ccccc1NC(=O)C1CC=CCC1C(=O)O (centres undefined) |
| > 43.8 µg/mL | CCOC(=O)CNC(=O)c1ccc(Br)s1 |
| > 43.8 µg/mL | CC(=O)Nc1ccc(C(=O)CN2C(=O)CSC2=O)cc1 |
| 39 µg/mL | CC1(C)C2CCC1(C)C(OC(=O)C[n+]1ccccc1)C2.[Cl-] (centres undefined) |
| 42.1 µg/mL (≈ 145 µM) | O=C1CSC(c2ccc(Cl)cc2)N1c1cccnc1 (centres undefined) |
| 42.7 µg/mL (≈ 130 µM) | CC(C)CNC(=O)C(=O)Nc1cc2c3c(c1)C(C)C(=O)N3CCC2 (centres undefined) |
| < 0.6 µg/mL | COC(=O)c1sc(-c2ccc(Cl)cc2)cc1N |
| 69.5 µg/mL (≈ 132 µM) | COc1ccc2c(c1)C(=O)N(CCc1ccc(S(=O)(=O)NC(=O)NC3CCCCC3)cc1)C(=O)C2(C)C |
